Assay results from patent US20050197350A1, “Novel quinoline, tetrahydroquinazoline, and pyrimidine derivatives and methods of treatment related to the use thereof” (TAISHO PHARMACEUTICAL CO., LTD., priority 2003, published 2005).
Structures can show the parent of a compound that is named as a salt.

Each compound was assayed against MCH receptor (Homo sapiens, UniProt Q99705) (assay: High throughput functional screening FLIPR/FDSS6000 (intracellular Ca2+ evoked by MCH)). Settings: FLIPR/FDSS, antagonist activity vs 50 nM MCH; class by percent of control at 10^−7 M or IC50; table after the classification; read-out: class.
Assay type: cell-based
From the text: High Throughput Functional Screening: FLIPR™
This assay utilized a non-endogenous, constitutively active version of the MCH receptor.
The concentration of free Ca^2+ in the cytosol of any cell is extremely low, whereas its concentration in the extracellular fluid and endoplasmic reticulum (ER) is very high. Thus, there is a large gradient tending to drive Ca^2+ into the cytosol across both the plasma membrane and ER. The FLIPR™ and FDSS6000™ systems (Molecular Devices Corporation, […] Photonics K.K.) are designed to perform functional cell-based assays, such as the measurement of intracellular calcium for high-throughput screening. The measurement of fluorescent is associated with calcium release upon activation of the Gq-coupled receptors.
Fluorometric Imaging Plate Reader system was used to allow for rapid, kinetic measurements of intracellular fluorescence in 96 well microplates (or 384 well microplates). Simultaneous measurements of fluorescence in all wells can be made by FLIPR or FDSS6000™ every second with high sensitivity and precision. These systems are ideal for measuring cell-based functional assays such as monitoring the intracellular calcium fluxes that occur within seconds after activation of the Gq coupled receptor.
Briefly, the cells are seeded into 96 well at 5.5×10^4 cells/well with complete culture media (Dulbecco's Modified Eagle Medium with 10% fetal bovine serum, 2 mM L-glutamine, 1 mM sodium pyruvate and 0.5 mg/ml G418, pH 7.4) for the assay next day. On the day of assay, the media is removed and the cells are incubated with 100 μl of loading buffer (4 μM Fluo4-AM in complete culture media containing 2.5 mM Probenicid, 0.5 mg/ml and 0.2% bovine serum albumin) in 5% CO2 incubator at 37° C. for 1 hr. The loading buffer is removed, and the cells are washed with wash buffer (Hank's Balanced Salt Solution containing 2.5 mM Probenicid, 20 mM HEPES, 0.5 mg/ml and 0.2% bovine serum albumin, pH 7.4)). One hundred fifty μl of wash buffer containing various concentrations of test compound is added to the cells, and the cells are incubated in 5% CO2 incubator at 37° C. for 30 min. […] 530 nm for 290 second. When antagonist activity of compound is tested, 50 nM of MCH is used.
Use of FLIPR™ and FDSS6000™ can be accomplished by following manufacturer's instruction (Molecular Device Corporation and […] Photonics K.K.).

SMILES | IC50 [nM]
N#Cc1cccc(C(=O)N[C@H]2CC[C@@H](Nc3ccc4ccccc4n3)CC2)c1 [Example 3049, 3-Cyano-N-[cis-4-(quinolin-2-ylamino)-cyclohexyl]-benzamide hydrochloride] | < 50
O=C(N[C@H]1CC[C@@H](Nc2ccc3ccccc3n2)CC1)c1cccc(C(F)(F)F)c1 [Example 3050, N-[cis-4-(Quinolin-2-ylamino)-cyclohexyl]-3-trifluoromethyl-benzamide hydrochloride] | < 50
Cc1cccc(OCC(=O)N[C@H]2CC[C@@H](Nc3ccc4ccccc4n3)CC2)c1 [Example 3051, N-[cis-4-(Quinolin-2-ylamino)-cyclohexyl]-2-m-tolyloxy-acetamide hydrochloride] | < 50
O=C(N[C@H]1CC[C@@H](Nc2ccc3ccccc3n2)CC1)C(c1ccccc1)c1ccccc1 [Example 3052, 2,2-Diphenyl-N-[cis-4-(quinolin-2-ylamino)-cyclohexyl]-acetamide hydrochloride] | < 50
O=C(N[C@H]1CC[C@@H](Nc2ccc3ccccc3n2)CC1)c1ccc(Br)o1 [Example 3053, 5-Bromo-furan-2-carboxylic acid [cis-4-(quinolin-2-ylamino)-cyclohexyl]-amide hydrochloride] | < 50
COc1cccc(OCC(=O)N[C@H]2CC[C@@H](Nc3ccc4ccccc4n3)CC2)c1 [Example 3062, 2-(3-Methoxy-phenoxy)-N-[cis-4-(quinolin-2-ylamino)-cyclohexyl]-acetamide hydrochloride] | < 50
O=C(COc1cccc(Cl)c1)N[C@H]1CC[C@@H](Nc2ccc3ccccc3n2)CC1 [Example 3063, 2-(3-Chloro-phenoxy)-N-[cis-4-(quinolin-2-ylamino)-cyclohexyl]-acetamide hydrochloride] | < 50
O=C(COc1ccc(F)c(Cl)c1)N[C@H]1CC[C@@H](Nc2ccc3ccccc3n2)CC1 [Example 3064, 2-(3-Chloro-4-fluoro-phenoxy)-N-[cis-4-(quinolin-2-ylamino)-cyclohexyl]-acetamide hydrochloride] | < 50
O=C(COc1ccc(Cl)c(Cl)c1)N[C@H]1CC[C@@H](Nc2ccc3ccccc3n2)CC1 [Example 3065, 2-(3,4-Dichloro-phenoxy)-N-[cis-4-(quinolin-2-ylamino)-cyclohexyl]-acetamide hydrochloride] | < 50
CN(CC(=O)N[C@H]1CC[C@@H](Nc2ccc3ccccc3n2)CC1)c1ccccc1 [Example 3066, C-(Methyl-phenyl-amino)-N-[cis-4-(quinolin-2-ylamino)-cyclohexyl]-acetamide dihydrochloride] | < 50
O=C(CNc1ccc(Cl)c(Cl)c1)N[C@H]1CC[C@@H](Nc2ccc3ccccc3n2)CC1 [Example 3067, 2-(3,4-Dichloro-phenylamino)-N-[cis-4-(quinolin-2-ylamino)-cyclohexyl]-acetamide dihydrochloride] | 50 to 200
O=C(NC[C@H]1CC[C@@H](Nc2ccc3ccccc3n2)CC1)c1ccc(F)c(F)c1 [Example 3068, 3,4-Difluoro-N-[cis-4-(quinolin-2-ylamino)-cyclohexylmethyl]-benzamide hydrochloride] | 50 to 200
Cc1cc(N[C@H]2CC[C@@H](NC(=O)Nc3cccc(Cl)c3Cl)CC2)nc2ccccc12 [Example 3072, 1-(2,3-Dichloro-phenyl)-3-[cis-4-(4-methyl-quinolin-2-ylamino)-cyclohexyl]-urea hydrochloride] | < 50
Cc1cc(N[C@H]2CC[C@@H](NC(=O)c3csc([N+](=O)[O-])c3)CC2)nc2ccccc12 [Example 3074, 5-Nitro-thiophene-3-carboxylic acid [cis-4-(4-methyl-quinolin-2-ylamino)-cyclohexyl]-amide hydrochloride] | < 50
Cc1cc(C(=O)N[C@H]2CC[C@@H](Nc3cc(C)c4ccccc4n3)CC2)ccc1F [Example 3080, 4-Fluoro-3-methyl-N-[cis-4-(4-methyl-quinolin-2-ylamino)-cyclohexyl]-benzamide hydrochloride] | < 50
Cc1cc(N[C@H]2CC[C@@H](NC(=O)c3cc([N+](=O)[O-])cn3C)CC2)nc2ccccc12 [Example 3081, 1-Methyl-4-nitro-1H-pyrrole-2-carboxylic acid-[cis-4-(4-methyl-quinolin-2-ylamino)-cyclohexyl]-amide hydrochloride] | < 50

Further lines, results first:

IC50 [nM] | SMILES
< 50 | O=C(N[C@H]1CC[C@@H](Nc2ccc3ccccc3n2)CC1)c1cccnc1Oc1ccccc1Br [Example 3048, 2-(2-Bromophenoxy)-N-[cis-4-(quinolin-2-ylamino)-cyclohexyl]-nicotinamide hydrochloride]
< 50 | O=C(N[C@H]1CC[C@@H](Nc2ccc3ccccc3n2)CC1)c1cccnc1Oc1ccc(F)cc1 [Example 3054, 2-(4-Fluoro-phenoxy)-N-[cis-4-(quinolin-2-ylamino)-cyclohexyl]-nicotinamide hydrochloride]
< 50 | O=C(N[C@H]1CC[C@@H](Nc2ccc3ccccc3n2)CC1)c1cccnc1Oc1ccc(F)c(F)c1 [Example 3055, 2-(3,4-Difluoro-phenoxy)-N-[cis-4-(quinolin-2-ylamino)-cyclohexyl]-nicotinamide hydrochloride]
< 50 | Cc1ccc(Oc2ncccc2C(=O)N[C@H]2CC[C@@H](Nc3ccc4ccccc4n3)CC2)cc1 [Example 3056, N-[cis-4-(Quinolin-2-ylamino)-cyclohexyl]-2-p-tolyloxy-nicotinamide hydrochloride]
< 50 | O=C(N[C@H]1CC[C@@H](Nc2ccc3ccccc3n2)CC1)c1cccnc1Oc1ccc(Cl)cc1 [Example 3057, 2-(4-Chloro-phenoxy)-N-[cis-4-(quinolin-2-ylamino)-cyclohexyl]-nicotinamide hydrochloride]
< 50 | O=C(N[C@H]1CC[C@@H](Nc2ccc3ccccc3n2)CC1)c1cccnc1Oc1ccc(Br)cc1 [Example 3058, 2-(4-Bromo-phenoxy)-N-[cis-4-(quinolin-2-ylamino)-cyclohexyl]-nicotinamide hydrochloride]
< 50 | COc1ccc(Oc2ncccc2C(=O)N[C@H]2CC[C@@H](Nc3ccc4ccccc4n3)CC2)cc1 [Example 3059, 2-(4-Methoxy-phenoxy)-N-[cis-4-(quinolin-2-ylamino)-cyclohexyl]-nicotinamide hydrochloride]
50 to 200 | O=C(N[C@H]1CC[C@@H](Nc2ccc3ccccc3n2)CC1)c1cccnc1Oc1ccc(F)c(Cl)c1 [Example 3060, 2-(3-Chloro-4-fluoro-phenoxy)-N-[cis-4-(quinolin-2-ylamino)-cyclohexyl]-nicotinamide hydrochloride]
< 50 | Cc1cccc(Oc2ncccc2C(=O)N[C@H]2CC[C@@H](Nc3ccc4ccccc4n3)CC2)c1 [Example 3061, N-[cis-4-(Quinolin-2-ylamino)-cyclohexyl]-2-m-tolyloxy-nicotinamide hydrochloride]
50 to 200 | O=C(NC[C@H]1CC[C@@H](Nc2ccc3ccccc3n2)CC1)c1cccnc1Oc1ccccc1 [Example 3069, 2-Phenoxy-N-[cis-4-(quinolin-2-ylamino)-cyclohexylmethyl]-nicotinamide hydrochloride]
< 50 | Cc1cc(N[C@H]2CC[C@@H](NC(=O)c3cccnc3Oc3ccccc3)CC2)nc2ccccc12 [Example 3070, N-[cis-4-(4-Methylquinolin-2-ylamino)-cyclohexyl]-2-phenoxy-nicotinamide hydrochloride]
< 50 | Cc1cc(N[C@H]2CC[C@@H](NC(=O)c3cccc(Cl)c3)CC2)nc2ccccc12 [Example 3073, 3-Chloro-N-[cis-4-(4-methyl-quinolin-2-ylamino)-cyclohexyl]-benzamide hydrochloride]
< 50 | Cc1cccc(C(=O)N[C@H]2CC[C@@H](Nc3cc(C)c4ccccc4n3)CC2)c1 [Example 3075, 3-Methyl-N-[cis-4-(4-methyl-quinolin-2-ylamino)-cyclohexyl]-benzamide hydrochloride]
< 50 | COc1cccc(C(=O)N[C@H]2CC[C@@H](Nc3cc(C)c4ccccc4n3)CC2)c1 [Example 3076, 3-Methoxy-N-[cis-4-(4-methyl-quinolin-2-ylamino)-cyclohexyl]-benzamide hydrochloride]
< 50 | Cc1cc(N[C@H]2CC[C@@H](NC(=O)c3ccc(C#N)cc3)CC2)nc2ccccc12 [Example 3077, 4-Cyano-N-[cis-4-(4-methyl-quinolin-2-ylamino)-cyclohexyl]-benzamide hydrochloride]
< 50 | Cc1cc(N[C@H]2CC[C@@H](NC(=O)c3ccc(Cl)c(Cl)c3)CC2)nc2ccccc12 [Example 3078, 3,4-Dichloro-N-[cis-4-(4-methyl-quinolin-2-ylamino)-cyclohexyl]-benzamide hydrochloride]
